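Exposure lasted 48 hours, with cells grown in 96-well plates and compounds tested at five concentrations. GI50 marks 50% less growth.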 Activity calls are given as the source filed them. Rule as the data show it: active = GI50 up to about 1.1 µM and inactive = higher.

Common to all, as to assay: inhibition of tumour cell growth, NCI panel, 48 h
In assay [1] the test system is 786-0.
In assay [2] the test system is CCRF-CEM.
Assay [3] has as its system HT-29.
For assay [4], the system named is KM12.
Assay [5] relates to LOX IMVI.
Assay [6] deals with NCI-H226.
The subject of assay [7] is NCI-H460.
Assay [8] concerns OVCAR-3.
The subject of assay [9] is PC-3.
Assay [10] relates to SF-295.
The subject of assay [11] is SF-539.
In assay [12] the test system is SK-MEL-5.
In assay [13] the test system is SN12C.
For assay [14], the system named is SNB-19.
The subject of assay [15] is SR.
Assay [16] relates to TK-10.
Assay [17] has as its system UACC-62.
Assay [18] concerns HCT-15.

For the molecule `CN(NC(=O)/C(=C/c1ccc(O)cc1)NC(=O)c1ccccc1)c1ccnc2cc(Cl)ccc12`, the GI50 is 15.9 µM (inactive) in assay [1]; 17.3 µM (inactive) in [2]; 6.4 µM (inactive) in [3]; 17.8 µM (inactive) in assay [4]; 18.8 µM (inactive) in [5]; 12.7 µM (inactive) in [6]. Moreover, the GI50 in assay [7] was 15.6 µM (inactive); in assay [8], 16.7 µM (inactive); in assay [9], 16.6 µM (inactive); in assay [10], 16.4 µM (inactive); in assay [11], 23 µM (inactive); in [12], 21 µM (inactive). The GI50 is 24.9 µM (inactive) in [13]; 17.2 µM (inactive) in assay [14]; 3.08 µM (inactive) in [15]; 15.5 µM (inactive) in assay [16]; 17.1 µM (inactive) in assay [17].
For the molecule `CC1CN=C(N(C(=O)Nc2ccccc2)c2ccc(Cl)c(Cl)c2)S1` (stereo not drawn), the GI50 in [1] was 31.1 µM (inactive); in [2], > 10 µM (inactive); in assay [18] it was 23.2 µM; in [3] it was 16.1 µM (inactive); in [4], 30.5 µM (inactive); in assay [5], 25.9 µM (inactive). The GI50 in assay [7] was 19.3 µM (inactive); in assay [8] it was > 10 µM (inactive); in assay [9], 26.8 µM (inactive); in assay [10] it was 45.5 µM (inactive); in [11], 40.5 µM (inactive); in [12], 18.5 µM (inactive). For the same molecule, the GI50 in assay [13] was 16.6 µM (inactive); in assay [14], 70.6 µM (inactive); in [15], 24.4 µM (inactive); in [16], 28.2 µM (inactive).
As for `c1ccc(C[n+]2ccc3c(c2)CCCC3)cc1`, the GI50 in assay [1] is > 100 µM (inactive); in [2], > 100 µM (inactive); in assay [18], above 100 µM; in [3] it was 50.9 µM (inactive); in assay [4], 62.2 µM (inactive); in assay [5], 92.7 µM (inactive). For the same molecule, the GI50 in assay [6] is > 100 µM (inactive); in assay [7] it was 78.7 µM (inactive); in [8], 36.8 µM (inactive); in [9], 78 µM (inactive); in [10], 77.3 µM (inactive); in assay [11] it was > 100 µM (inactive). For the same molecule, the GI50 in [12] is 19.6 µM (inactive); in [13], > 100 µM (inactive); in assay [14], 49.5 µM (inactive); in assay [15] it was > 100 µM (inactive); in [16] it was > 100 µM (inactive); in assay [17] it was > 100 µM (inactive).
With `Cc1nn(CNc2ccc(F)c(Cl)c2)c(=S)n1/N=C/c1ccc(-c2ccc(Cl)cc2Cl)o1`, the GI50 was 15.3 µM (inactive) in [1]; 4.16 µM (inactive) in assay [2]; 16.9 µM in assay [18]; 19.6 µM (inactive) in assay [3]; 20.5 µM (inactive) in [4]; 16.6 µM (inactive) in [5]. In addition, the GI50 in [6] was 17.2 µM (inactive); in assay [7], 17.1 µM (inactive); in assay [8], 17.3 µM (inactive); in assay [9], 16.4 µM (inactive); in [10] it was 15.7 µM (inactive); in assay [11] it was 16.8 µM (inactive). Further, the figures for the GI50 in [12], in assay [15] and in assay [16] were 16.7 µM (inactive), 1.4 µM (inactive) and 15.3 µM (inactive), respectively.
In the case of `COC1=CC(=O)c2c(O)c3c(c(O)c2C1=O)OC1(Oc2c(cc4cc(C)oc(=O)c4c2O)CC1O)C3O` (stereo not drawn), the GI50 is 40 µM (inactive) in [1]; 30.1 µM (inactive) in assay [2]; 29 µM in assay [18]; 48.4 µM (inactive) in [3]; 29.9 µM (inactive) in [4]; 30.1 µM (inactive) in [5]. Besides, the GI50 is 27.4 µM (inactive) in assay [7]; 67.1 µM (inactive) in assay [8]; 38.4 µM (inactive) in assay [9]; 41.6 µM (inactive) in assay [10]; 44.5 µM (inactive) in assay [11]; 26.6 µM (inactive) in assay [12]. In addition, the GI50 in [13] was 23.5 µM (inactive); in assay [14], 20.9 µM (inactive); in assay [15], > 100 µM (inactive); in [16] it was 50.9 µM (inactive); in assay [17], 32.7 µM (inactive).
For `CC[S+]([O-])C(=O)N(O)c1ccc(Cl)cc1` (stereo not drawn), the GI50 in assay [1] is 21.7 µM (inactive); in [2], 12.6 µM (inactive); in [18], 23.8 µM; in [4], 15.6 µM (inactive); in assay [5], 11.7 µM (inactive); in assay [6], 84.1 µM (inactive). Also, the GI50 in assay [8] was 31.6 µM (inactive); in [9] it was 37.4 µM (inactive); in [10] it was 85.7 µM (inactive); in assay [11], 24.9 µM (inactive); in assay [12], 26.4 µM (inactive); in assay [13], 22.3 µM (inactive). Moreover, the results for the GI50 in assay [14], in [16] and in assay [17] were 60.7 µM (inactive), 35.8 µM (inactive) and 8.55 µM (inactive), respectively.
`C=C1CC(c2ccc(OCCCN3C(=O)c4ccccc4C3=O)cc2)OC1=O` (stereo not drawn): the GI50 in [1] is 1.95 µM (inactive); in assay [2], 1.64 µM (inactive); in assay [18], 2.36 µM; in assay [3], 2.53 µM (inactive); in assay [4], 3.83 µM (inactive); in [5] it was 1.36 µM (inactive). In addition, the GI50 is 1.46 µM (inactive) in [6]; 2.07 µM (inactive) in assay [7]; 1.86 µM (inactive) in [8]; 2.92 µM (inactive) in assay [9]; 10.5 µM (inactive) in [10]; 0.123 µM (active) in assay [11]. In addition, the GI50 was 6.64 µM (inactive) in assay [12]; 3.31 µM (inactive) in assay [13]; 7.38 µM (inactive) in [14]; 3.05 µM (inactive) in [15]; 4.94 µM (inactive) in [16]; 1.97 µM (inactive) in [17].
`c1ccc2c(Cc3nnc4sc(SSc5nn6c(Cc7c[nH]c8ccccc78)nnc6s5)nn34)c[nH]c2c1`: the GI50 in assay [1] is 20.8 µM (inactive); in [2], 32.6 µM (inactive); in assay [18], 21.3 µM; in assay [3], 22.5 µM (inactive); in [4], 22.9 µM (inactive); in assay [7], 30.4 µM (inactive). Further, the GI50 in assay [8] is 11.8 µM (inactive); in assay [9] it was 19.3 µM (inactive); in assay [10], 19.5 µM (inactive); in [11] it was 23.1 µM (inactive); in assay [12], 11.2 µM (inactive); in [13] it was 18.7 µM (inactive). For the same molecule, the GI50 in assay [14] was 31 µM (inactive); in assay [15] it was 18.1 µM (inactive); in [16], 38.7 µM (inactive); in [17], 16 µM (inactive).
Take `CCO/C=N\C1=C(C#N)SC2=N/C(=C\c3ccco3)C(=O)N21`: the GI50 in [1] was > 100 µM (inactive); in assay [2], > 100 µM (inactive); in assay [18] it was above 100 µM; in assay [3], > 100 µM (inactive); in [4], > 100 µM (inactive); in assay [5] it was > 100 µM (inactive). Besides, the GI50 in assay [6], in assay [8], in assay [9], in assay [10], in [11] and in assay [12] was > 100 µM (inactive) throughout. For the same molecule, the GI50 in [13], in assay [14], in [15] and in [16] was > 100 µM (inactive) each time.

Source of the values: ChEMBL document CHEMBL1201862, “PubChem BioAssay data set” (2004).
